Values quoted from earlier work in patent publication US7584087B2, “Structure of protein kinase C theta” (Wyeth, priority 2004, dated 2009).

Key:
Settings in all cases: result in words, from Meggio et al. 1995
PKC isoforms = tested on: PKC isoforms
casein kinase 1 (CK1) = tested on: casein kinase 1 (CK1)
casein kinase 2 (CK2) = tested on: casein kinase 2 (CK2)
[1] = tested on: mitogen-activated protein kinase (MAPK)
CSK = CSK (Homo sapiens, UniProt P41240)
CSK, sequence (P41240 whole entry, species assumed): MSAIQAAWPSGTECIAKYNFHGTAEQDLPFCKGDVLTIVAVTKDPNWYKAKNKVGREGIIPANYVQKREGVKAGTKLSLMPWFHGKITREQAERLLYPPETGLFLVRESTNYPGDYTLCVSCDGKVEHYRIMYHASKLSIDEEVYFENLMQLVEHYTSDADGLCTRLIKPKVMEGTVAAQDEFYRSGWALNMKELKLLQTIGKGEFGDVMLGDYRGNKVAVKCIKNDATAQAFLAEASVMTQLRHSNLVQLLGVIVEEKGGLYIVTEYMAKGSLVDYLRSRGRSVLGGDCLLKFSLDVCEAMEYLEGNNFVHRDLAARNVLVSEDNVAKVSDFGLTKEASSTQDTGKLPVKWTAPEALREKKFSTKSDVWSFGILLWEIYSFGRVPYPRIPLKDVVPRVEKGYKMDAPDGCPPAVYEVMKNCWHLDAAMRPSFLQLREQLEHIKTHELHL

CN[C@@H]1C[C@H]2O[C@@](C)([C@@H]1OC)n1c3ccccc3c3c4c(c5c6ccccc6n2c5c31)C(=O)NC4 [Staurosporine, staurosporine]
potency against PKC isoforms (PKC isoforms): low nanomolar
potency against casein kinase 1 (CK1) (casein kinase 1 (CK1)): micromolar
potency against casein kinase 2 (CK2) (casein kinase 2 (CK2)): micromolar
potency against mitogen-activated protein kinase (MAPK) [1]: micromolar
potency against CSK (CSK): micromolar
